The term EC50 denotes the concentration at which the effect is half-maximal. A higher EC50 goes with a need for much substance. One may read the Ki as the equilibrium dissociation constant of an inhibitor or competing ligand from its target.

Assay [1] has as its system IL-12 induced pSTAT4 (Tyk2-pSTAT4). The experiment in a line: IL-12 Induced pSTAT4 in human PBMC. The conditions noted are these: IL-12 1.7 ng/mL. Type of assay: cell-based. The procedure: IL-12 Induced pSTAT4 in human PBMC. Human PBMC are isolated from buffy coat and are stored frozen for assays as needed. Cells for assay are thawed and resuspended in complete media containing serum, then cells are diluted to 1.67 E6 cells/ml so that 120 μl per well is 200,000 cells. 15 μl of compound or DMSO is added to the well at the desired concentrations and incubated at 1 hr at 37 C. 15 μl of stimulus (final concentration of 1.7 ng/mL IL-12) is added for 30 minutes prior to pSTAT4 and total STAT4 analysis using cell lysates prepared and analyzed by MSD reagents as per manufacturer protocol. The final DMSO concentration of compound in the assay is 0.1%.
(§1) The compound numbers correspond to the compound numbers in Table 1. Compounds having an activity designated as “A” provided an EC50≤2 μM; compounds having an activity designated as “B” provided a EC50 of 2-20 μM, and compounds having an activity designated as “C” provided an EC50>20 μM.

The target in a further assay is TYK2 (Homo sapiens (Human), UniProt P29597). The experiment in a line: Tyk2 activity inhibition assay (radioactive kinase / Caliper assay). Type of assay: biochemical. The procedure: (§2) Peptide substrate, [KKSRGDYMTMQIG], (20 μM) is prepared in reaction buffer (20 mM Hepes pH 7.5, 10 mM MgCl2, 1 mM EGTA, 0.02% Brij35, 0.02 mg/mL BSA, 0.1 mM […], 2 mM DTT, 1% DMSO. TYK2 (Invitrogen) kinase is added, followed by compounds in DMSO. 33PATP is added to initiate the reaction in ATP at 10 μM. Kinase reaction is incubated for 120 min at room temp and reactions are spotted onto P81 ion exchange paper (Whatman #3698-915), and then washed extensively in 0.75% phosphoric acid, prior to reading the radioactivity counts. For JAK2 (Invitrogen) kinase assay the peptide substrate poly[Glu:Tyr] (4:1), 0.2 mg/ml is used, in the reaction carried out the same as for TYK2.
(§3) The caliper machine employs an off chip mobility shift assay to detect phosphorylated peptide substrates from kinase assays, using microfluidics technology. The assays are carried out at ATP concentration equivalent to the ATP Km, and at 1 mM ATP. Compounds are serially diluted in DMSO then further diluted in assay buffer (25 mM HEPES, pH 7.5, 0.01% Brij-35, 0.01% Triton, 0.5 mM EGTA). 5 ul of diluted compound was added into wells first, then 10 ul of enzyme mix was added into wells, followed by 10 uL of substrate mix (peptide and ATP in 10 mM MgCl2) to start reaction. Reaction was incubated at 28° C. for 25 min and then added 25 ul stop buffer (100 mM HEPES, 0.015% Brij-35, 50 mM EDTA), followed by reading with Caliper. JAK2 at 1 nM final concentration and TYK2 at 9.75 nM are from Carna, and substrates used are ATP at 20 and 16 uM, respectively. JAK2 assay uses peptide 22 and TYK2 uses peptide 30 (Caliper), each at 3 uM.
(§4) The compound numbers correspond to the compound numbers in Table 1. Compounds having an activity designated as “A” provided an Ki≤0.01 μM; compounds having an activity designated as “B” provided an Ki of 0.01-0.1 μM; compounds having an activity designated as “C” provided an Ki of 0.1-1.0 μM; and compounds having an activity designated as “D” provided an Ki≥1.0 μM.

In assay [2] the test system is GM-CSF induced pSTAT5 (JAK2-pSTAT5). The assay is described as follows: GM-CSF Induced pSTAT5 in human PBMC. Type of assay: cell-based. The settings on record: GM-CSF 5 ng/mL. The procedure: GM-CSF Induced pSTAT5 in human PBMC. Cells are prepared for analysis as in the above procedure and 15 μl of GM-CSF (final concentration 5 ng/mL) is added for 20 minutes prior to pSTAT5 and total STAT5 analysis using cell lysates prepared and analyzed by MSD reagents as per manufacturer protocol. The final DMSO concentration of compound in the assay is 0.1%.
as §1

A further assay addresses JAK2 (Homo sapiens (Human), UniProt O60674). The experiment in a line: JAK2 activity inhibition assay (radioactive kinase / Caliper assay). The format is biochemical. The procedure:
as §2, §3, §4

Some results are limits rather than exact numbers.

JAK2, sequence (O60674 whole entry): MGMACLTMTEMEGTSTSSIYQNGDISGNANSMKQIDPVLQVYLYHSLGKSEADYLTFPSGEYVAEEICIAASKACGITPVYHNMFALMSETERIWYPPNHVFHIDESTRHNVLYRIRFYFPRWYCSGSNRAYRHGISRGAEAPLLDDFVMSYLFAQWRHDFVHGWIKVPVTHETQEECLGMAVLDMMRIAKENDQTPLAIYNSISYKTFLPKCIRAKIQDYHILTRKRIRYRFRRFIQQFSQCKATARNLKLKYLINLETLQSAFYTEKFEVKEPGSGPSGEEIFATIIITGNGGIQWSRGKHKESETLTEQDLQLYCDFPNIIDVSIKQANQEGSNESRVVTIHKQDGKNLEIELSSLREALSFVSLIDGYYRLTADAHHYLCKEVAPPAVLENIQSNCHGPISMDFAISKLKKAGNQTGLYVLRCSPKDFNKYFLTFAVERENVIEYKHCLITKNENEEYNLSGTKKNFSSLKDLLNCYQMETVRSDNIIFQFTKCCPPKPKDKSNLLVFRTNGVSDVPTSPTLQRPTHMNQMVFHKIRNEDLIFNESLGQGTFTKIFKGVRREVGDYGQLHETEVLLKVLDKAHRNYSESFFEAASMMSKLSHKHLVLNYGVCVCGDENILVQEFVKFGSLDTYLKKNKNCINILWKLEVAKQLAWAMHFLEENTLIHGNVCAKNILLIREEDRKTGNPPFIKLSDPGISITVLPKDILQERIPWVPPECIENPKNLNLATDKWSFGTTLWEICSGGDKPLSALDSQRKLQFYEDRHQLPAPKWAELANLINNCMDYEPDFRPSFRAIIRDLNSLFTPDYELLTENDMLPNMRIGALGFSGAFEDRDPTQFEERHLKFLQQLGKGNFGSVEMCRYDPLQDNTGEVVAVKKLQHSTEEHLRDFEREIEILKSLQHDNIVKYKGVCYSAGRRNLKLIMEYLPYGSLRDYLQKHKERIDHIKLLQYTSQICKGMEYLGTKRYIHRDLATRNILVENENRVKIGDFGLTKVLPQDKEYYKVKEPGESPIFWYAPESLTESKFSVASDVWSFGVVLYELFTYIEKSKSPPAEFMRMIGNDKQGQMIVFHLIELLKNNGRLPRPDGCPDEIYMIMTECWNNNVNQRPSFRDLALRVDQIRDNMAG
TYK2, sequence (P29597 whole entry): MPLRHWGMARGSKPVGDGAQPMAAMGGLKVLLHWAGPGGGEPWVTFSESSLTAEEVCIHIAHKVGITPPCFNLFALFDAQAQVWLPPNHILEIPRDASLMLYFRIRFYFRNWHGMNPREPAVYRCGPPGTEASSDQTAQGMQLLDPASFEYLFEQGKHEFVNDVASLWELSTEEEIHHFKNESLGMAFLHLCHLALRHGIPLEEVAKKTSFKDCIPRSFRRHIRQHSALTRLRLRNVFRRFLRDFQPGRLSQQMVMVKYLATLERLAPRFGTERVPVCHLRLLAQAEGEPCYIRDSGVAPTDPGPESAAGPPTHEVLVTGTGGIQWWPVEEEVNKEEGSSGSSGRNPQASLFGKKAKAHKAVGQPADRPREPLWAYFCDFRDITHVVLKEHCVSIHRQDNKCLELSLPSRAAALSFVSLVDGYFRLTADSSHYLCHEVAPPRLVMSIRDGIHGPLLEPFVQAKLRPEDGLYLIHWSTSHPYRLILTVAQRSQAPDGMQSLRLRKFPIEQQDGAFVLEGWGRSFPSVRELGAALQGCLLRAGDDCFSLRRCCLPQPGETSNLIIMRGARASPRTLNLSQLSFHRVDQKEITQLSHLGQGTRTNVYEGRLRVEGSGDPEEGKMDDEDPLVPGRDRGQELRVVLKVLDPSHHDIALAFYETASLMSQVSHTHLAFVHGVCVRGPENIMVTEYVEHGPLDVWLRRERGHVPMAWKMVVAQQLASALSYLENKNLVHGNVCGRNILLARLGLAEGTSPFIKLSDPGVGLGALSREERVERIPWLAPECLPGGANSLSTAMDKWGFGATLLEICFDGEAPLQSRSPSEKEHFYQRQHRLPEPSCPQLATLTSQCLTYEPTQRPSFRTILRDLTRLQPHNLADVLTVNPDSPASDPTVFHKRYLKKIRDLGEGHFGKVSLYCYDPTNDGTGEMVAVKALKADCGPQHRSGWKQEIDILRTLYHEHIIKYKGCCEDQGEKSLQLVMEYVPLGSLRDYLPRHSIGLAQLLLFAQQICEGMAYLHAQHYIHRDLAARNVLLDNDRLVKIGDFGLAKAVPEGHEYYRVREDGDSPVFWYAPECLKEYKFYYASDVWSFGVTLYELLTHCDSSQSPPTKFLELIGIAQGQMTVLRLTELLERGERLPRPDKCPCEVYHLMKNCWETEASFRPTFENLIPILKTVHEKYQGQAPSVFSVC

As for `CC1(C)COc2cc(Nc3cc(-c4c(F)cccc4F)nc4c3C(=O)NC4)ccc21` [Compound I-70, 2-(2,6-difluorophenyl)-4-((3,3-dimethyl-2,3-dihydrobenzofuran-6-yl)amino)-6,7-dihydro-5H-pyrrolo[3,4-b]pyridin-5-one], the EC50 in assay [1] was at most 2000 nM; in assay [2], over 20000 nM. In addition, the Ki is at most 10 nM at TYK2 and 100 to 1000 nM at JAK2.

Take `O=C1NCc2c1c(Nc1ccc(C(=O)N3CCOCC3)cc1)cc(-c1c(F)cccc1F)[n+]2[O-]` [Compound I-84, 2-(2,6-difluorophenyl)-4-((4-(morpholine-4-carbonyl)phenyl)-amino)-5-oxo-6,7-dihydro-5H-pyrrolo[3,4-b]pyridine 1-oxide]: the 50% effective concentration (EC50) in assay [1] and in assay [2] was over 20000 nM each time. Besides, the Ki on TYK2 was 10 to 100 nM; at JAK2 it was at least 1000 nM.

For the compound `O=C1NCc2nc(-c3c(F)cccc3F)cc(Nc3ccc(N4CCC5(CCO5)CC4)cn3)c21` [Compound I-25, 4-((5-(1-oxa-7-azaspiro[3.5]nonan-7-yl)pyridin-2-yl)amino)-2-(2,6-difluorophenyl)-6,7-dihydro-5H-pyrrolo[3,4-b]pyridin-5-one], the results for the concentration for a half-maximal effect (EC50) in assay [1] and in assay [2] were at most 2000 nM and 2000 to 20000 nM, respectively. Besides, the values for the inhibition constant Ki on TYK2 and at JAK2 were at most 10 nM and 10 to 100 nM, respectively.

Take `CN1C(=O)C(C)(c2ccc(Nc3nc(-c4c(F)cccc4F)nc4c3C(=O)NC4)cc2)Oc2ccccc21` (stereo not shown) [Compound I-39, 2-(4-((2-(2,6-difluorophenyl)-5-oxo-6,7-dihydro-5H-pyrrolo[3,4-d]pyrimidin-4-yl)amino)phenyl)-2,4-dimethyl-2H-benzo[b][1,4]oxazin-3(4H)-one]: the Ki at TYK2 was at most 10 nM; at JAK2 it was 100 to 1000 nM.

With `N#Cc1cccc(F)c1-c1cc(Nc2ccc(N3C[C@H]4COC[C@H]4C3)nc2)c2c(n1)CNC2=O` [Compound I-74, 3-fluoro-2-(5-oxo-4-((6-((3aR,6aS)-tetrahydro-1H-furo[3,4-c]pyrrol-5(3H)-yl)pyridin-3-yl)amino)-6,7-dihydro-5H-pyrrolo[3,4-b]pyridin-2-yl)benzonitrile], the figures for the Ki at TYK2 and at JAK2 were at most 10 nM and 100 to 1000 nM, respectively.

As to `CN1CCc2cc(Nc3cc(-c4c(F)cccc4F)nc4c3C(=O)NC4)ccc2C1=O` [Compound I-64, 6-((2-(2,6-difluorophenyl)-5-oxo-6,7-dihydro-5H-pyrrolo[3,4-b]pyridin-4-yl)amino)-2-methyl-3,4-dihydroisoquinolin-1 (2H)-one], the inhibitory constant (Ki) is at most 10 nM on TYK2 and 10 to 100 nM on JAK2.

`CN1C(=O)[C@@](C)(c2ccc(Nc3nc(-c4c(F)cccc4F)nc4c3C(=O)NC4)cc2)Oc2ccccc21` [Compound I-41, (R)-2-(4-((2-(2,6-difluorophenyl)-5-oxo-6,7-dihydro-5H-pyrrolo[3,4-d]pyrimidin-4-yl)amino)phenyl)-2,4-dimethyl-2H-benzo[b][1,4]oxazin-3(4H)-one]: the Ki on TYK2 and on JAK2 was 100 to 1000 nM throughout.

Consider `O=C1NCc2nc(-c3c(F)cccc3F)cc(Nc3ccc4c(c3)CS(=O)(=O)C4)c21` [Compound I-86, 2-(2,6-difluorophenyl)-4-((2,2-dioxido-1,3-dihydro-benzo[c]thio-phen-5-yl)amino)-6,7-dihydro-5H-pyrrolo[3,4-b]pyridin-5-one], for which the Ki is at most 10 nM at TYK2 and 10 to 100 nM on JAK2.

For the compound `CC(N)(C(=O)O)c1ccc(Nc2nc(-c3c(F)cccc3F)nc3c2C(=O)NC3)cc1` (stereo not shown) [Compound I-32, 2-amino-2-(4-((2-(2,6-difluorophenyl)-5-oxo-6,7-dihydro-5H-pyrrolo[3,4-d]pyrimidin-4-yl)amino)phenyl)propanoic acid], the inhibition constant Ki at TYK2 is at most 10 nM; at JAK2 it was at least 1000 nM.

In the case of `CN1C(=O)C(C)(c2ccc(Nc3nc(-c4c(F)cccc4F)nc4c3C(=O)NC4)cc2)c2ccccc21` (stereo not shown) [Compound I-48, 2-(2,6-difluorophenyl)-4-((4-(1,3-dimethyl-2-oxoindolin-3-yl)phenyl)amino)-6,7-dihydro-5H-pyrrolo[3,4-d]pyrimidin-5-one], the inhibitory constant (Ki) at TYK2 fell in the range of 10 to 100 nM; at JAK2 it was 100 to 1000 nM.

On to `O=C1NCc2nc(-c3c(F)cccc3F)cc(Nc3ccc4c(n3)NCC4)c21` [Compound I-22, 2-(2,6-difluorophenyl)-4-((2,3-dihydro-1H-pyrrolo[2,3-b]pyridin-6-yl)amino)-6,7-dihydro-5H-pyrrolo[3,4-b]pyridin-5-one], for which the Ki on TYK2 was at most 10 nM; on JAK2 it was 10 to 100 nM.

As for `O=C1NCc2nc(-c3c(F)cccc3F)cc(Nc3ccc4c(c3)OCO4)c21` [Compound I-68, 4-(benzo[d][1,3]dioxol-5-ylamino)-2-(2,6-difluorophenyl)-6,7-dihydro-5H-pyrrolo[3,4-b]pyridin-5-one], the figures for the Ki at TYK2 and on JAK2 were 10 to 100 nM and 100 to 1000 nM, respectively.

`C[C@](O)(C(=O)O)c1ccc(Nc2nc(-c3c(F)cccc3F)nc3c2C(=O)NC3)cc1` [Compound I-8, (R)-2-(4-((2-(2,6-difluorophenyl)-5-oxo-6,7-dihydro-5H-pyrrolo[3,4-d]pyrimidin-4-yl)amino)phenyl)-2-hydroxypropanoic acid]: the Ki on TYK2 is at most 10 nM; at JAK2, 100 to 1000 nM.

Regarding `C[C@](O)(c1ccc(Nc2nc(-c3c(F)cccc3F)nc3c2C(=O)NC3)cc1)C(F)(F)F` [Compound I-34, (S)-2-(2,6-difluorophenyl)-4-((4-(1,1,1-trifluoro-2-hydroxy-propan-2-yl)phenyl)amino)-6,7-dihydro-5H-pyrrolo[3,4-d]pyrimidin-5-one], the concentration giving a half-maximal response (EC50) in assay [1] was at most 2000 nM; in assay [2] it was 2000 to 20000 nM. Also, the Ki on JAK2 lay in the range of 10 to 100 nM.

With `CC1(C)COc2cc(Nc3cc(-c4c(F)cccc4C#N)nc4c3C(=O)NC4)ccc21` [Compound I-80, 2-(4-((3,3-dimethyl-2,3-dihydrobenzofuran-6-yl)amino)-5-oxo-6,7-dihydro-5H-pyrrolo[3,4-b]pyridin-2-yl)-3-fluorobenzonitrile], the inhibition constant Ki on TYK2 was at most 10 nM; at JAK2, 10 to 100 nM.

As for `O=C1NCc2nc(-c3c(F)cccc3F)cc(Nc3ccc(N4CCC5(CCCCO5)CC4)cn3)c21` [Compound I-53, 4-((5-(1-oxa-9-azaspiro[5.5]undecan-9-yl)pyridin-2-yl)amino)-2-(2,6-difluorophenyl)-6,7-dihydro-5H-pyrrolo[3,4-b]pyridin-5-one], the Ki at TYK2 was at most 10 nM; at JAK2, 10 to 100 nM.

Turning to `O=C1NCc2nc(-c3c(F)cccc3F)cc(Nc3ccc(N4C[C@H]5COC[C@H]5C4)nc3)c21` [Compound I-73, 2-(2,6-difluorophenyl)-4-((6-((3aR,6aS)-tetrahydro-1H-furo[3,4-c]pyrrol-5(3H)-yl)pyridin-3-yl)amino)-6,7-dihydro-5H-pyrrolo[3,4-b]pyridin-5-one], the Ki was 10 to 100 nM on TYK2 and at least 1000 nM at JAK2.

Consider `CC(O)(c1ccc(Nc2nc(-c3c(F)cccc3F)nc3c2C(=O)NC3)cc1)C(F)(F)F` (stereo not shown) [Compound I-33, 2-(2,6-difluorophenyl)-4-((4-(1,1,1-trifluoro-2-hydroxy-propan-2-yl)phenyl)amino)-6,7-dihydro-5H-pyrrolo[3,4-d]pyrimidin-5-one], for which the Ki was at most 10 nM on TYK2 and 100 to 1000 nM on JAK2.

Values taken from patent publication US10968236B2, “TYK2 inhibitors and uses thereof” (Nimbus Lakshmi, Inc., priority 2015, dated 2021).
